Experimental data from US4238472A, “Radioimmunoassay for chlorinated dibenzo-p-dioxins” (priority 1978, dated 1980).

How the values were obtained:
antiserum GC-5 = experiment: Cross reactivity in chlorinated DBD radioimmunoassay, antiserum GC-5; assay type: binding, rabbit
Excerpt: (§1) Since TCDD itself has no chemically reactive functional groups, a derivative was synthesized that retained most of the structural features of TCDD but with the addition of a reactive site. This derivative was coupled to an immunogenic protein carrier, such as bovine serum albumin, rabbit serum albumin, etc., so that animals would respond to it by producing an antiserum containing antibodies. A second compound was synthesized, still structurally similar to TCDD so that it would bind to the antibodies, but capable of being labeled with ^125 I for detectability at the picogram level. An amount of antiserum capable of binding about 20 pg of ^125 I-labeled dioxin derivative (hapten) is preincubated with the detergent emulsion of the sample extract (possibly containing TCDD). Then the mixture is incubated with the ^125 I-labeled derivative long enough for equilibrium binding to occur and form the hapten-antibody complex. A second antibody, namely, goat antibodies against rabbit gamma-globulin (i.e., goat anti-rabbit γ-globulin) are then added to precipitate the antibody ^125 I-labeled dioxin complex, and the amount of ^125 I in the precipitate is determined. The extent to which preincubation with the test material inhibits or decreases the amount of ^125 I precipitated relative to the amount precipitated in the absence of test material is a measure of the amount of chlorodibenzodioxin in the test sample.
(§2) Radioimmunoassay of small molecules requires some means of separating free hapten from antibody-bound hapten. The procedure used in the present invention, chosen because of its compatibility with detergent-solubilized hapten, involved precipitating the antibody-hapten complex with a second antibody, namely, goat antibodies against rabbit gamma-globulin. In this assay chlorodibenzodioxin from the environmental sample completes with the ^125 I-labeled hapten for binding to the antibody. Thus, the decrease in precipitation of radioactivity is a measure of the amount of (unlabeled) hapten in the test sample.
(§3) The assay buffer (hereinafter referred to as "PBS") contained, per liter, 20 mmol of potassium phosphate, 140 mmol of NaCl, and 200 mg of sodium azide. The pH was adjusted to 7.3 with NaOH. Antiserum was diluted with PBS also containing 0.1% bovine gamma globulin and 0.02% rabbit gamma globulin (w/v). Each assay tube from procedure G above received 0.2 ml of PBS, after which the tubes were held in the sonicator for 40 minutes and then cooled to room temperature. Appropriately diluted antiserum or, as control, antiserum diluant was added (0.2 ml) and, after vortex-mixing, the tubes were incubated for 40 minutes at 37°. 14000 disintegrations per minute (hereafter referred to as "DPM") or 7000 counts per minute (hereinafter referred to as "CPM", which equals DPM×counting efficiency) of [^125 I]-iodovaleramide derivative of trichlorodibenzo-p-dioxin in PBS containing 1% "Cutscum" were then added to each tube (approximately 10 μl), vortex mixed, and the tubes incubated for 1 hour at 37° followed by an additional 65 hours of incubation at 4°. Each tube next received 1.24 units of goat anti-rabbit gamma globulin in 0.2 ml of PBS containing 0.05 mM ethylenediamine tetracetic acid (hereinafter referred to as "EDTA"), was vortex mixed, and incubated for 5 hours at 4°. The tubes were centrifuged at 500×g for 20 minutes at 4°. The supernates were poured off and the tubes allowed to drain into Whatman #3 MM paper for 10 minutes. The precipitate or pellets obtained were then radioassayed for ^125 I, with 10 minute count cycles.
(§4) Standard curves were prepared using sequential two-fold dilutions of TCDD or other test compounds in benzene and evaporating the solvent as described above. Both control (blank) and TCDD-spiked tissues were extracted and processed as described above to determine general interference and recoveries. All samples were run in triplicate. […]

antiserum F-12 [1] = experiment: Specificity / cross reactivity of the radioimmunoassay, antiserum F-12; assay type: binding, rabbit
Excerpt: as §1, §2, §3, §4

[2] = in vivo; cited from earlier work
antiserum F-12 [3] = experiment: Specificity / cross reactivity of the radioimmunoassay, antiserum F-12; assay type: binding, rabbit; conditions: incubation times between 2 and 65 hours; "Cutscum"
[4] = Determination of 2,3,7,8-TCDD in monkey tissue by gas chromatography with negative ion mass spectrometry; assay type: in vivo, Rhesus Monkeys (Macaca muletta)
Excerpt: (§5) Using spiked, sandy soil samples, the inventors were able to detect 0.7 picomole of 2,3,7,8-TCDD using "Cutsum" and either antiserum. With "Triton X-305" replacing the "Cutscum", as little as 0.08 picomole of 2,3,7,8-TCDDcould be detected. These levels of sensitivity required that a dilution of antiserum (usually about 1:9000) be used that would bind 33% of the ^125 I-labeled hapten. To test the applicability of this assay to tissue samples, the inventors obtained liver and adipose samples from monkeys that had been used in a toxicity study involving 2,3,7,8-TCDD [as described by E. E.McConnell et al in "Toxicity of 2,3,7,8-tetrachlorodibenzo-p-dioxin in Rhesus Monkeys (Macaca muletta) Following a Single Oral Dose", appearing in Toxicol. Appl. Pharmacol. 43/1,175-187(1978)]. Sample size ranged from 3 to 50 mg of tissue for the radioimmunoassay, while 200 mg samples were used for comparison assays by gas chromatography with either negative chemical ionization mass spectrometry [as described by J. R. Hass et al in "Determination of Polychlorinated Dibenzo-p-Dioxins in Biological Samples by Negative Chemical Ionization Mass Spectrometry", appearing in Anal. Chem. 50/11, 1471-1479 (1978)], or an electron capture detector as measuring device.
(§6) ^a Monkeys 373 and 374 were controls and dosed orally with corn oil
alone. Monkeys 380 and 391 were experimental and received a single oral […]

guinea pig = conditions: cited from earlier work
[5] = Determination of 2,3,7,8-TCDD in monkey tissue by radioimmunoassay; assay type: in vivo, Rhesus Monkeys (Macaca muletta); conditions: antiserum F12, "Cutscum"
Procedure: Blend 10 g of tissue in 200 ml of chloroform:methanol, 2:1 (v/v). Filter with suction through glass fiber filter paper (Reeve Angel grade 934AH or equivalent). Return the filter paper and cake to the blender jar and blend with 100 ml of chloroform:methanol, 2:1 (v/v). Filter as above ad combine filtrates. Add 52 ml of 1.2% aqueous KCl, mix well, let phases clear, and collect the lower phase in a 500 ml round bottom flask. Evaporate just to dryness at 40° using a rotary evaporator and water aspirator. This is a modification of the method of Folch et al [J.Biol.Chem.,236,497 (1957)].
Grind together 8 g of anhydrous sodium sulfate per gram of adipose, using a mortar and pestle. Extract the resulting powder with chloroform in a Soxhlet extractor, allowing at least 8 cycles.
Leach the lipid residue from 10 g of liver, 100 ml of blood or 1 g of adipose into 15 ml of CCl4. Partition against 15 ml of con.H2 SO4. Centrifuge at 2000 rpm for 30 minutes. Remove as much of the CCl4 layer as possible and record the volume recovered. Pass the CCl4 solution through anhydrous Na2 CO3 in a glass wool-plugged funnel, rinising the Na2 CO3 with 2 ml of fresh CCl4. Concentrate the filtrate just to dryness on a rotary evaporator at 40°. Leach the residue into 1.5 ml of n-hexane:methylene chloride, 97:3 (v/v).
as §3, with “Each tube next received 1.24 units of goat anti-rabbit gamma globulin in 0.2 ml of PBS containing 0.05 mM ethylenediamine tetracetic acid (hereinafter referred to as "EDTA"), was vortex mixed, and incubated for 5 hours at 4°. The tubes were centrifuged at 500×g for 20 minutes at 4°. The supernates were poured off and the tubes allowed to drain into Whatman #3 MM paper for 10 minutes. The precipitate or pellets obtained were then radioassayed for ^125 I, with 10 minute count cycles.” left out
Using spiked, sandy soil samples, the inventors were able to detect 0.7 picomole of 2,3,7,8-TCDD using "Cutsum" and either antiserum. With "Triton X-305" replacing the "Cutscum", as little as 0.08 picomole of 2,3,7,8-TCDDcould be detected. […]

[6] = Determination of 2,3,7,8-TCDD in monkey tissue by gas chromatography with electron capture detector; assay type: in vivo, Rhesus Monkeys (Macaca muletta)
Excerpt: as §5, §6
alone. Monkeys 380 and 391 were experimental and received a single oral
dose of 70 μg/kg or 350 μg/kg TCDD in corn oil, respectively.
GCEC = Gas chromatography with electron capture detector.

[7] = monkey 380, adipose, single oral dose 70 μg/kg
[8] = monkey 391, adipose, single oral dose 350 μg/kg
[9] = monkey 380, liver, single oral dose 70 μg/kg
[10] = monkey 391, liver, single oral dose 350 μg/kg

## Clc1cc2c(cc1Cl)Oc1c(cc(Cl)c(Cl)c1Cl)O2 [1,2,3,7,8-Cl5 Dibenzo-p-Dioxin]
Antiserum GC-5
  Cross Reactivity, Antiserum GC-5: 100 × (inhibition of 125I binding by 4 pmole of test compound)/(inhibition by 4 pmole of 2,3,7,8-TCDD): 99%
Antiserum F-12 [1]
  Cross Reactivity, Antiserum F-12: 100 × (inhibition of 125I binding by 4 pmole of test compound)/(inhibition by 4 pmole of 2,3,7,8-TCDD): 97%
[2]
  toxicity relative to TCDD: toxicities comparable to that of TCDD

## Clc1cc2c(c(Cl)c1Cl)Oc1cc(Cl)c(Cl)c(Cl)c1O2 [1,2,3,6,7,8-Cl6 Dibenzo-p-Dioxin]
Antiserum GC-5
  Cross Reactivity, Antiserum GC-5: 100 × (inhibition of 125I binding by 4 pmole of test compound)/(inhibition by 4 pmole of 2,3,7,8-TCDD): 99%
Antiserum F-12 [1]
  Cross Reactivity, Antiserum F-12: 100 × (inhibition of 125I binding by 4 pmole of test compound)/(inhibition by 4 pmole of 2,3,7,8-TCDD): 9%
[2]
  toxicity relative to TCDD: toxicities comparable to that of TCDD

## Clc1cc2c(c(Cl)c1Cl)Oc1c(cc(Cl)c(Cl)c1Cl)O2 [1,2,3,7,8,9-hexachlorodibenzo-p-dioxin]
Antiserum F-12 [1]; if available for testing
  effective competition in the assay (predicted): effective competitor
[2]
  toxicity relative to TCDD: toxicities comparable to that of TCDD

## Clc1cc2oc3cc(Cl)c(Cl)cc3c2cc1Cl [2,3,7,8-Cl4 Dibenzofuran, 2,3,7,8-tetrachlorodibenzofuran]
Antiserum GC-5
  Cross Reactivity, Antiserum GC-5: 100 × (inhibition of 125I binding by 4 pmole of test compound)/(inhibition by 4 pmole of 2,3,7,8-TCDD): 25%
Antiserum F-12 [3]
  ratio of inhibition by 5 ng of 2,3,7,8-DBF to that of 2,3,7,8-DBD: constant
Antiserum F-12 [1]
  reactivity with F-12 (2,3,7,8-tetrachlorodibenzo-p-dioxin v 2,3,7,8-tetrachlorodibenzofuran): approximately the same reactivity
  Cross Reactivity, Antiserum F-12: 100 × (inhibition of 125I binding by 4 pmole of test compound)/(inhibition by 4 pmole of 2,3,7,8-TCDD): 92%

## Clc1cc2c(cc1Cl)Oc1cc(Cl)c(Cl)cc1O2 [2,3,7,8-TCDD, 2,3,7,8-tetrachlorodibenzo-p-dioxin]
Antiserum GC-5
  binding by the antibodies in GC-5: Essentially all of these antibodies (in GC-5) also bind 2,3,7,8-TCDD
  Cross Reactivity, Antiserum GC-5: 100 × (inhibition of 125I binding by 4 pmole of test compound)/(inhibition by 4 pmole of 2,3,7,8-TCDD): 100%
Antiserum GC-5; GC-5 diluted such that 33% of the label was bound in the absence of competitors
  maximum inhibition of binding of 125I-labeled hapten: up to 97%
[4]; [7]
  TCDD in tissue, GM-MS: 28 ppb
[4]; [8]
  TCDD in tissue, GM-MS: 1740 ppb
Guinea pig
  acute oral LD50: less than 1 microgram per kg
Antiserum F-12 [1]
  reactivity with F-12 (2,3,7,8-tetrachlorodibenzo-p-dioxin v 2,3,7,8-tetrachlorodibenzofuran): approximately the same reactivity
  Cross Reactivity, Antiserum F-12: 100 × (inhibition of 125I binding by 4 pmole of test compound)/(inhibition by 4 pmole of 2,3,7,8-TCDD): 100%
[5]; [7]
  TCDD in tissue, RIA: 41 ppb
[5]; [9]
  TCDD in tissue, RIA: 20 ppb
[5]; [8]
  TCDD in tissue, RIA: 1800 ppb
[5]; [10]
  TCDD in tissue, RIA: 94 ppb
[6]; [7]
  TCDD in tissue, GC-EC: 87 ppb
[6]; [9]
  TCDD in tissue, GC-EC: 17 ppb
[6]; [8]
  TCDD in tissue, GC-EC: 1810 ppb
[6]; [10]
  TCDD in tissue, GC-EC: 30 ppb
